Experiments:
[1] = Corneal permeabilization / bioavailability test on whole ox eye with fluoresceine tracer; format: in vitro ADME; conditions: 30 minutes after application on anterior corneal surface
Description: The bioavailability was tested on whole ox eye (in vitro test) and on rabbit eyes (test in vivo) by applying the eye drops on the anterior corneal surface. A fluorescent tracer (fluoresceine) was added to the eye drops to follow the intraocular pharmacokinetics thereof. The transcorneal distribution of the std eye drops was evaluated by a slit lamp with determination of the fluorescence on both sides of the corneal membrane. A fluorescent tracer was added to the eye drops in order to follow the intraocular pharmacokinetics thereof. […] At the end of the prescribed time, its adsorption through the anterior chamber was assessed using a slit lamp. […] After the treatment, the fluid contained in the anterior chamber was collected and subjected to spectrofluorimetric analysis for the quantification of the tracer able to cross the corneal membrane. For the analysis, a […] spectrofluorometer (Hitachi, Tokyo, Japan) calibrated on specific fluorescence characteristics of fluoresceine (excitation 500 nm, emission 561 nm) was used. […] The ability of the std eye drops, both as such and in nanoparticle form, to pass the corneal membrane was thus determined by analysis del fluorescent track present in the fluid in the anterior chamber 30 minutes after the application of the preparation on the anterior corneal surface.

[2] = system: Sclerocorneal human trabecular meshwork cells (HTM cells); assay: MTT cell viability test on HTM cells with or without H2O2 oxidative damage; format: cell-based; conditions: H2O2 only
Description: (§1) Commercially available endothelial cellular lines of sclerocorneal trabecular meshwork were used. Said lines undergone a physiological ageing lasted about 10 cycles of cellular replication, thus representing a validated in vitro model of sclerocorneal trabecular meshwork degeneration. Sclerocorneal human trabecular meshwork cells (HTM cells. ScienceCell Research Laboratories, CA, USA) were grown in a nutritional medium containing 10% v/v fetal bovine serum, 2 mM L-glutamine, penicillin (100 IU/mL) at 37° C. in the presence of 5% v/v CO2. Once cells were semi-confluent (80% covering of the plate surface), cells were collected by treatment with trypsin/EDTA and distributed in multiwell microplates at a density of 7×10^3 cells/well. Cells at 80% confluence were pre-treated for 30 minutes with 50 μL of eye drops with different polyphenolic concentration (0.15% Perilla frutescens extract in 0.25% sodium hyaluronate (high eye drops) compared with a 0.10% Perilla frutescens extract in 0.25% sodium hyaluronate (standard eye drops)). […]
At the end of the treatment, the culture medium was removed, and cell viability and genotoxic damage were evaluated. […]
In particular, cell viability was assessed using the metabolization test of 3-(4,5-dimethyithiazol-2-yl)-2,5-diphenyltetrazolium bromide (MTT). […] The results were analysed by ANOVA using the Statview statistic software.

HTM cells [3] = assay: Genotoxic damage (comet test) in HTM cells; format: cell-based, human; conditions: treatment with substance only
Description: Commercially available endothelial cellular lines of sclerocorneal trabecular meshwork were used. Said lines undergone a physiological ageing lasted about 10 cycles of cellular replication, thus representing a validated in vitro model of sclerocorneal trabecular meshwork degeneration. Sclerocorneal human trabecular meshwork cells (HTM cells. ScienceCell Research Laboratories, CA, USA) were grown in a nutritional medium containing 10% v/v fetal bovine serum, 2 mM L-glutamine, penicillin (100 IU/mL) at 37° C. in the presence of 5% v/v CO2. […]
For the assessment of genotoxic damage, the comet test was used. […] In particular, the aspect of DNA fragmentation acquired by the comet test in HTM cells was evaluated. […] The images were then analysed at 400 magnifications by fluorescence microscope (Leica DMI 4000B) equipped with digital camera (Leica DFC 310 FX). For each slide a minimum of 100 nuclei were analysed by CASP imaging analysis system (Comet assay software project, http://www.casp.sourceforge.net). Single-strand and double-strand breaks were quantified in terms of “tail moment”, which is the product of the comet tail length multiplied by the total DNA fraction in the tail. […] The significance of differences among the various treatments was determined by ANOVA test.

HTM cells [4] = assay: Microscopic morphologic aspect of HTM cells in the different conditions of treatment; format: cell-based, human; conditions: treatment with substance only
Description: as §1

fluorescent tracer in the fluid of the anterior chamber (spectrofluorimetry) [1]	SMILES	cytopathic effect (MTT cell viability) [2]	DNA damage / fragmentation (comet test) (HTM cells [3])	HTM cell morphology (HTM cells [4])
conspicuous and specific positive signal	O=C1OC2(c3ccc(O)cc3Oc3cc(O)ccc32)c2ccccc21 [fluoresceine, fluorescein sodium]			
	OO [H2O2]	substantial cytopathic effect	nuclei are massively dissolved with evident diffusion of the fragmented DNA	cells take a rounded shape, separate from the substrate and reflect the light
